The target of this test is Histone-binding protein RBBP4/Polycomb protein EED/Polycomb protein SUZ12/Zinc finger protein AEBP2 (Homo sapiens, UniProt O75530+Q09028+Q15022+Q6ZN18). In words: Enzymatic Activity Assay: An aliquot of each serial dilution of test compound was added to deep 384 well plate using Acoustic Technology instrument (Echo 550, LabCyte) containing reaction buffer (50 mM Tris-HCl (pH 8), 0.01% Brij35, 1 mM EDTA, 1 mM DTT, 1 mM PMSF and 1% DMSO), 10 nM purified PRC2 complex and 0.05 mg/ml core histone H3 in a 5 μl volume. The reaction was mixed gently and then pre-incubated for 20 min at 30° C. The enzymatic reaction was initiated by adding 1 uM S-Adenosyl-L-[methyl-3H]methionine and incubated for 1 hr at 30° C. After 1 hr, the reaction product was detected using a filter binding method and the amount of tritiated H3 core histone was quantitated using a scintillation counter. Format: protein-complex assay.

Here are results for one compound from ChEMBL document CHEMBL5729420, “Substituted imidazo[1,2-c]pyrimidines as PRC2 inhibitors” (2022).

Bounds are passed on as bounds.

Chain of Histone-binding protein RBBP4/Polycomb protein EED/Polycomb protein SUZ12/Zinc finger protein AEBP2 (O75530 whole entry): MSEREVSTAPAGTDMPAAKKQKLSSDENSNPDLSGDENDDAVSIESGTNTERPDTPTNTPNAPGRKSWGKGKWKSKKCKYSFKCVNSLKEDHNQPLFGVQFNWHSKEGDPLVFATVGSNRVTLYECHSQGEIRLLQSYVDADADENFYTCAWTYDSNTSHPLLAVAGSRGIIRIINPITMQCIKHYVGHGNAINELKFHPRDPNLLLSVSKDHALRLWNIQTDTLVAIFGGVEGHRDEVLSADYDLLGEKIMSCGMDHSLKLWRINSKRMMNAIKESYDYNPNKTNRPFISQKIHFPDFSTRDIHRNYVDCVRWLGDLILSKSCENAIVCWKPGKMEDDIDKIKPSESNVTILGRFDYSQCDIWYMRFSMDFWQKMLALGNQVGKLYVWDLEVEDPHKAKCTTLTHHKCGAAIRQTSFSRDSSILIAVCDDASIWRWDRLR
Chain of Histone-binding protein RBBP4/Polycomb protein EED/Polycomb protein SUZ12/Zinc finger protein AEBP2 (Q15022 whole entry): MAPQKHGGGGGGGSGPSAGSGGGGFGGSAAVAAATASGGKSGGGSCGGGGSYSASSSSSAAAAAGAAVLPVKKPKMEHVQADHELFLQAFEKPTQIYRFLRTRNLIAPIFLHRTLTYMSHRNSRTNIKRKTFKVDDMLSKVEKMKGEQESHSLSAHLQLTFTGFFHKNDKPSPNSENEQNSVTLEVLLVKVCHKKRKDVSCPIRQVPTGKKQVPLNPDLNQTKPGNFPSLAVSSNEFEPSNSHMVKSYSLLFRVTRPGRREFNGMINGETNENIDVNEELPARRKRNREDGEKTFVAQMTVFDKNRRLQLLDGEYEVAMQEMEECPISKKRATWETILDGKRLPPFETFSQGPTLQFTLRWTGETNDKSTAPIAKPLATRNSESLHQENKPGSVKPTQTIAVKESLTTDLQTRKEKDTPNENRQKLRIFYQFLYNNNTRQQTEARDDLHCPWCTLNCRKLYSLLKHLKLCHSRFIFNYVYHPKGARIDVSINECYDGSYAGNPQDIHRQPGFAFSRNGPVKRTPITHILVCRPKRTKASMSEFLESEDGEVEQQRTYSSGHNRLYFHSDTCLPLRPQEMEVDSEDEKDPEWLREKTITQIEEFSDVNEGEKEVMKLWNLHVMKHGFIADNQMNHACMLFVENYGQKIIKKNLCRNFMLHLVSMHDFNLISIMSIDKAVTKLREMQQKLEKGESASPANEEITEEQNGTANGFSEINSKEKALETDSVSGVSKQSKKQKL
Chain of Histone-binding protein RBBP4/Polycomb protein EED/Polycomb protein SUZ12/Zinc finger protein AEBP2 (Q6ZN18 whole entry): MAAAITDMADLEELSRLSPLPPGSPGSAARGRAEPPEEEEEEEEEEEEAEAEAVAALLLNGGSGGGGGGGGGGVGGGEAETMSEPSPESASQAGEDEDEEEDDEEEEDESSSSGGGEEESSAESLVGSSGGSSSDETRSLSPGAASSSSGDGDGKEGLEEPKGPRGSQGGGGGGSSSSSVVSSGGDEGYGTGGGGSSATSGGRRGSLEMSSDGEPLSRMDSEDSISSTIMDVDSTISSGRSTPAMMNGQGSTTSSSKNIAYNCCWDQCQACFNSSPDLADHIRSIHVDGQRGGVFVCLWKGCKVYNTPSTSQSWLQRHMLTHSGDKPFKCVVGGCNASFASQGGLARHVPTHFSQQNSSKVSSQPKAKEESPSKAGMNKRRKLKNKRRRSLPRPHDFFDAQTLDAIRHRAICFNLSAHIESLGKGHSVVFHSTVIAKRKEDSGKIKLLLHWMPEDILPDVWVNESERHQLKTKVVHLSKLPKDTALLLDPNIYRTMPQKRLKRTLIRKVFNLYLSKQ
Chain of Histone-binding protein RBBP4/Polycomb protein EED/Polycomb protein SUZ12/Zinc finger protein AEBP2 (Q09028 whole entry): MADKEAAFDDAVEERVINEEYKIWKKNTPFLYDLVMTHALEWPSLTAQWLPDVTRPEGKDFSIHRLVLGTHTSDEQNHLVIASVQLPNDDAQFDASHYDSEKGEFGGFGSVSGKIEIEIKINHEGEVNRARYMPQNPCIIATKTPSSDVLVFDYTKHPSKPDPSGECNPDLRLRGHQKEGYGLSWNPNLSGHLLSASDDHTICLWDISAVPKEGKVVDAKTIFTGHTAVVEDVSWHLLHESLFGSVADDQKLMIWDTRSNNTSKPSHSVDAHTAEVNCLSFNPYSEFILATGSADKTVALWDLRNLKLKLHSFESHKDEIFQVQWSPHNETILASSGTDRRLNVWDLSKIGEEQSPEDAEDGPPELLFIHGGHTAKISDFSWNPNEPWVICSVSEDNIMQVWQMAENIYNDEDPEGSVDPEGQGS

Take `Cc1cc(-c2cnc(NCc3c(F)ccc4c3CCCO4)n3cc(C#N)nc23)n(C)n1`: the IC50 was over 0.5 µM.
